± gives the expanded uncertainty stated by the source.
How the values were obtained:
[1] = 101.3 kPa, Liquid; for speed of sound: Frequency=3 MHz, Single path-length method; for mass density: Vibrating tube method
[2] = xn = mol fraction of the nth substance listed; details: 101.3 kPa, Liquid, x1 = 1; for speed of sound: Frequency=3 MHz, Single path-length method; for mass density: Vibrating tube method

Row | Compound | speed of sound ([1]; 298.15 K) | mass density ([1]; 298.15 K) | speed of sound ([1]; 303.15 K) | mass density ([1]; 303.15 K) | speed of sound ([1]; 308.15 K) | mass density ([1]; 308.15 K) | speed of sound ([1]; 313.15 K) | mass density ([1]; 313.15 K) | speed of sound ([1]; 318.15 K) | mass density ([1]; 318.15 K) | speed of sound ([2]; 298.15 K) | mass density ([2]; 298.15 K) | speed of sound ([2]; 303.15 K) | mass density ([2]; 303.15 K) | speed of sound ([2]; 308.15 K) | mass density ([2]; 308.15 K) | speed of sound ([2]; 313.15 K) | mass density ([2]; 313.15 K) | speed of sound ([2]; 318.15 K) | mass density ([2]; 318.15 K)
1 | CCn1cc[n+](C)c1.O=S(=O)([O-])C(F)(F)F [1-ethyl-3-methylimidazolium trifluoromethanesulfonate] | 1436 ± 10 m/s | 1383 ± 2 kg/m3 | 1425 ± 10 m/s | 1379 ± 2 kg/m3 | 1413 ± 10 m/s | 1374 ± 2 kg/m3 | 1402 ± 10 m/s | 1370 ± 2 kg/m3 | 1391 ± 10 m/s | 1366 ± 2 kg/m3 | – | – | – | – | – | – | – | – | – | –
2 | CCn1cc[n+](C)c1.O=S(=O)([O-])C(F)(F)F [1-ethyl-3-methylimidazolium trifluoromethanesulfonate] + CCCOCCO | – | – | – | – | – | – | – | – | – | – | 1436 ± 10 m/s | 1383 ± 2 kg/m3 | 1425 ± 10 m/s | 1379 ± 2 kg/m3 | 1413 ± 10 m/s | 1374 ± 2 kg/m3 | 1402 ± 10 m/s | 1370 ± 2 kg/m3 | 1391 ± 10 m/s | 1366 ± 2 kg/m3
3 | CCn1cc[n+](C)c1.O=S(=O)([O-])C(F)(F)F [1-ethyl-3-methylimidazolium trifluoromethanesulfonate] + CCOCCO | – | – | – | – | – | – | – | – | – | – | 1436 ± 10 m/s | 1383 ± 2 kg/m3 | 1425 ± 10 m/s | 1379 ± 2 kg/m3 | 1413 ± 10 m/s | 1374 ± 2 kg/m3 | 1402 ± 10 m/s | 1370 ± 2 kg/m3 | 1391 ± 10 m/s | 1366 ± 2 kg/m3
4 | CCOCCO [2-ethoxyethan-1-ol] | 1304 ± 10 m/s | 926 ± 2 kg/m3 | 1287 ± 10 m/s | 921 ± 2 kg/m3 | 1270 ± 10 m/s | 917 ± 2 kg/m3 | 1252 ± 10 m/s | 912 ± 2 kg/m3 | 1234 ± 10 m/s | 907 ± 2 kg/m3 | – | – | – | – | – | – | – | – | – | –
5 | CCCOCCO [2-propoxyethanol] | 1301 ± 10 m/s | 908 ± 2 kg/m3 | 1283 ± 10 m/s | 903 ± 2 kg/m3 | 1266 ± 10 m/s | 899 ± 2 kg/m3 | 1248 ± 10 m/s | 895 ± 2 kg/m3 | 1231 ± 10 m/s | 890 ± 2 kg/m3 | – | – | – | – | – | – | – | – | – | –

Reference: the NIST ThermoML archive (doi:10.1016/j.jct.2019.05.023)
